Results as given in patent US20220117964A1, “COMBINATION OF FAK INHIBITOR AND BTK INHIBITOR FOR TREATING A DISEASE” (ASCENTAGE PHARMA (SUZHU) CO., LTD., priority 2019, published 2022).
Values joined by “and” are separate entries in the source; they are usually repeats but may differ in a detail not shown here. Identical values can stand only once.

Tests used:
YES-2 cells = assay: Cell migration (Transwell) assay; type: cell-based; details: 0.5 μM Compound 5, 0.25 μM Ibrutinib or both
Procedure: The culture medium was sucked into a chamber of Transwell (PC membrane, pore size 8.0 μm, Corning, N.Y., USA), and then the chamber was placed in a 24-well plate containing 750 μl of 50% FBS medium. After incubation for 24 to 30 hours, the chamber was taken out, the medium in the chamber was sucked out, and the redundant cells in the chamber were wiped off with a cotton swab. The chamber was placed in paraformaldehyde to perform fixation for 15 minutes, and staining was performed with 0.5% crystal violet at room temperature for 15 minutes. Cell migration activity was described as a relative number of the cells that exited the chamber.
(§1) (1) The experimental method was as described in the items (1), (2), (5) of Example 2. […] The changes in signaling pathway of related proteins were determined by Western blotting assay.

[1] = tested on: human KYSE-150 mouse xenograft tumor model; assay: Human KYSE-150 mouse xenograft tumor model, antitumor effect; type: in vivo, BALB/c Nude mice; details: for RTV on day 12 after administration (mean ± standard error): day 12 (last dose); for RTV on day 12 after administration (mean ± standard error) / T/C on day 12 after administration (%) / RTV on day 18 after administration (mean ± standard error) / T/C on day 18 after administration (%): Compound 5 100 mg/kg p.o., Ibrutinib 25 mg/kg i.p.; for RTV on day 12 after administration (mean ± standard error) / RTV on day 18 after administration (mean ± standard error): qd × 5d, withdrawal 2 days/week × 2 weeks; for Tumor state on day 12 after administration: CR: day 12, animals with complete regression of tumor / group; for Tumor state on day 12 after administration: PR: day 12, animals with partial regression of tumor / group; for Tumor state on day 12 after administration: SD: day 12, animals with stable disease / group; for RTV on day 18 after administration (mean ± standard error): day 18 (after drug withdrawal); for Tumor state on day 18 after administration: CR: day 18, animals with complete regression of tumor / group; for Tumor state on day 18 after administration: PR: day 18, animals with partial regression of tumor / group; for Tumor state on day 18 after administration: SD: day 18, animals with stable disease / group
Procedure: The animals used were BALB/c Nude mice, 4-6 weeks old, female. Animal body weight was 14-16±20% g. The experimental animals were provided by Beijing Weitonglihua Experimental Animal Technology Co., Ltd. (Vital River Laboratories, VRL, license number: SOCK (J) 2016-0011). Animal certificate number: 11400700325794.
Compound 5 was intragastrically administered at a dose of 100 mg/kg and a volume of 200 μl. The preparation for the administration was prepared every 3 days and stored at 4° C. when it has not been in use. The formulation and use of the preparation were carried out under sterile conditions. […] The preparation for the administration was prepared every 3 days and stored at 4° C. The formulation and use of the preparation were carried out under sterile conditions.
Forty immunodeficiency mice were subcutaneously injected with 5×10^6 KYSE-150 cells suspended in 100 μl PBS in the right armpit to establish a xenograft tumor model. […] When the tumor reached an appropriate size (50 to 100 mm^3), the animals were randomly assigned according to the tumor volume, in which the difference in tumor volume among groups should be less than 10% of the mean value, and at last 7 mice were assigned to each group, and the administration was star ted on the day of group assignment (i.e., d1).
A subcutaneous immunodeficient-mice xenograft tumor model of human tumor was established by cell inoculation method: tumor cells in logarithmic growth phase were collected, counted and resuspended in 1×PBS, and the concentration of cell suspension was adjusted to 5×10^7/mL. 1 mL syringe ([…]) was used to inoculate the tumor cells subcutaneously on the right back of immunodeficient mice, 5×10^6/0.1 mL/mouse. All animal experiments were performed strictly in accordance with the guidelines for Institutional Animal Care and Use Committee (IACUC) of Sun Yat-sen University and Suzhou Yasheng Pharmaceutical Co., Ltd. The calculation of related parameters referred to China NMPA “Technical Guidelines for Nonclinical Research of Cytotoxic Antitumor Drugs”.
Animal body weight and tumor size were measured twice per week during the experiment. The growth of tumor was periodically observed, and when the tumor grew to an average volume of 50 to 100 mm^3, the mice were randomly divided into groups for administration according to tumor size and body weight. The status and deaths of the animals were observed every day. The routine monitoring included the effects of tumor growth and drug administration on the normal behaviors of animals, specially included the activity of experimental animals, food and water consumption, weight gain or loss, eyes, hair, and other abnormal conditions. The deaths and clinical symptoms observed during the experiment were recorded in the raw data. The entire operation for administration, measurement of mouse weight and tumor volume was performed in a clean bench. According to the requirements of the experimental protocol, when the long diameter of tumor was greater than 20 mm, the experimental end point was reached and the mice were euthanized. Tumor tissues were collected, weighed and photographed for recording.
Tumor volume (TV) was calculated as: TV=a×b^2/2, wherein a and b represented the measured length and width of tumor, respectively. The relative tumor volume (RTV) was calculated as: RTV=Vt/V1, wherein V1 represented the tumor volume at the time of group assignment and administration, and Vt represented the tumor volume on a certain day after administration.

[2] = tested on: phosphorylated EGFR (p-EGFR, Tyr1068); assay: Western blot, KYSE-150 and KYSE-520 cells; type: cell-based; details: KYSE-150 (1 μM Compound 5, 1 μM Ibrutinib) and KYSE-520 (1 μM Compound 5, 0.5 μM Ibrutinib), 24 hours
Procedure: (§2) The cells were lysed on ice with 1× cell lysis buffer containing 1% protease inhibitor (PMSF) and 1% phosphokinase inhibitor for 30 minutes, centrifuged at 12000 rpm and 4° C. for 15 minutes, and the supernatant protein lysate was collected. The protein concentration was measured by BCA protein concentration detection kit. The cell protein lysates (20 to 50 μg) were separated using 8-12% SDS-PAGE electrophoresis. The separated proteins were transferred to a PVDF membrane. The PVDF membrane was blocked with 5% BSA buffer at room temperature for 30 minutes to 1 hour, and then incubated overnight on a 4° C. shaker with 1× TBST containing primary antibody. The redundant primary antibody was eluted, and the membrane was washed 3 times with 1× TBST, 5 to 10 minutes for each time. The protein band membrane was incubated with horseradish peroxidase-labeled secondary antibody dilution for 1 hour at room temperature, and the membrane was washed 3 times with 1× TBST, 5 to 10 minutes for each time. The signal generation and detection were performed using an ECL chemiluminescence ultrasensitive colorimetric kit and a chemiluminescence imaging system. The primary antibodies used in this experiment included: EGFR, (CST, Cat.4267S); phosphorylated EGFR (p-EGFR (Tyr1068)), (CST, Cat.3777T); FAK, (CST, Cat.3285S); phosphorylated FAK (p-FAK (Tyr397)), (CST, Cat.8556T); AKT, (CST, Cat.4685S); phosphorylated p-AKT (Ser473), (CST, Cat.9271S); ERK, (CST,Cat.4695S); phosphorylated ERK (p-ERK (Thr202/Tyr204)), (CST, Cat.4370T); phosphorylated MEK (p-MEK (Ser217/221)), (CST, Cat.9121S);BTK, (Immunoway, Cat. YM1294); C-Myc, (CST, Cat. 5605); phosphorylated C-Myc, (CST, Cat. 13748); Cyclin B1 (CST, Cat. 12231S), Cylin D1 (CST, Cat.2978S), GAPDH (ABGENT, Cat.AM1020B). The secondary antibodies used in this experiment included goat-anti-rabbit secondary antibody (Senta, Cat. Sc-2004) and goat-anti-mouse secondary antibody (Senta, Cat. Sc-2005).
as §1

[3] = tested on: phosphorylated MEK (p-MEK, Ser217/221); assay: Western blot, KYSE-150 and KYSE-520 cells; type: cell-based; details: KYSE-150 (1 μM Compound 5, 1 μM Ibrutinib) and KYSE-520 (1 μM Compound 5, 0.5 μM Ibrutinib), 24 hours
Procedure: as §2, §1

Row | SMILES | cell migration (YES-2 cells) | RTV on day 12 after administration (mean ± standard error) [1] | Tumor state on day 12 after administration: CR [1] | Tumor state on day 12 after administration: PR [1] | Tumor state on day 12 after administration: SD [1] | T/C on day 12 after administration (%) [1] | RTV on day 18 after administration (mean ± standard error) [1] | Tumor state on day 18 after administration: CR [1] | Tumor state on day 18 after administration: PR [1] | Tumor state on day 18 after administration: SD [1] | T/C on day 18 after administration (%) [1] | protein expression level of phosphorylated EGFR (p-EGFR, Tyr1068) [2] | protein expression level of phosphorylated MEK (p-MEK, Ser217/221) [3] | Tumor state on day 18 after administration: remission rate, % ([1]; day 18, remission including CR, PR and SD)
1 | Cc1cc(Nc2ncc(Cl)c(Nc3ccccc3S(=O)(=O)C(C)C)n2)c(OC(C)C)cc1C1=CCN(C2CCOCC2)CC1 [Compound 5, 5-chloro-N^2-(2-isopropoxy-5-methyl-4-(1-(tetrahydro-2H-pyran-4-yl)-1,2,3,6-tetrahydropyridin-4-yl)phenyl)-N^4-(2-(isopropylsulfonyl)phenyl)pyrimidine-2,4-diamine] | cell migration in certain extent | 1.4 | 0/7 CR | 1/7 and 1/7 PR | 1/7 and 1/7 SD | 49.8% | 3.0 | 0/7 CR | 1/7 and 1/7 PR | 0/7 SD | 55.8% | – | – | –
2 | C=CC(=O)N1CCC[C@@H](n2nc(-c3ccc(Oc4ccccc4)cc3)c3c(N)ncnc32)C1 [Ibrutinib] | cell migration in certain extent | 1.4 | 0/7 CR | 1/7 and 1/7 PR | 1/7 and 1/7 SD | 48.6% | 3.8 | 0/7 CR | no animal and 0/7 PR | no animal and 0/7 SD | 70.2% | significantly decrease | significantly decrease | (0%)
